Experiments:
Chlamydia = experiment: Chlamydia-infected human mammary tumor cells (TMX2-28) treated with delta tocotrienol; format: cell-based
Description: FIG. 7 illustrates Chlamydia-infected human mammary tumor cells treated with delta tocotrienol (630× magnification). Human mammary tumor cells (TMX2-28) were infected with Chlamydia for 72 hours and treated with a 15 μmol/L concentration of delta tocotrienol (FIG. 7A). Controls were left untreated (FIG. 7B).

[1] = target: T1, 3-hydroxy-3-methylglutaryl coenzyme A (HMG-CoA) reductase (Homo sapiens, UniProt P04035); conditions: delta>gamma>beta>alpha tocotrienol (Tan, 2005); cited from earlier work
T1 sequence (P04035 1-888): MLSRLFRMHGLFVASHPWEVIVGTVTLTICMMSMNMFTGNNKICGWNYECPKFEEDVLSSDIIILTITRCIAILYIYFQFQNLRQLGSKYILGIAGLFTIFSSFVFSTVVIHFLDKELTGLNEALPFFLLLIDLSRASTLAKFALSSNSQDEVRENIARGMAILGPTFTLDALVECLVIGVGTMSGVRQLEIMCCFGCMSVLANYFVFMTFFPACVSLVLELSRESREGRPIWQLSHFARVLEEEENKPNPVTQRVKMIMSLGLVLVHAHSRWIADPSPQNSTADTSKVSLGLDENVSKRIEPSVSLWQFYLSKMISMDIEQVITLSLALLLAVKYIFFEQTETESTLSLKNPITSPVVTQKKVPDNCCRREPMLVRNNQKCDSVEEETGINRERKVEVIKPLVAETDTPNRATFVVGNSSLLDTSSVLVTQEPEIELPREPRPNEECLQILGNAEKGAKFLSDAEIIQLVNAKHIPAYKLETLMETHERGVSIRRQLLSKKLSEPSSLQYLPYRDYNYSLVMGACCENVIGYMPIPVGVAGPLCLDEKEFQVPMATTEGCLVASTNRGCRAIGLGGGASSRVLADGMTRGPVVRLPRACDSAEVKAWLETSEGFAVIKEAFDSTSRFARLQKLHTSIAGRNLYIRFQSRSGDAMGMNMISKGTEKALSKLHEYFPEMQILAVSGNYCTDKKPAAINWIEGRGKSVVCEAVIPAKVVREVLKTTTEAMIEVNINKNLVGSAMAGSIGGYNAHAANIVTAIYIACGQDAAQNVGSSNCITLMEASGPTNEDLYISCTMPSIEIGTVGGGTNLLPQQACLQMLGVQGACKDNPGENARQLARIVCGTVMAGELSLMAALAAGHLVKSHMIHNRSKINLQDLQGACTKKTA

C. trachomatis serovar K = experiment: Infection of delta tocotrienol-pretreated cell lines (J774A.1, MCF-7, TMX2-28, Hep-2, JY), immunofluorescence with microscopy or flow cytometry; format: cell-based, Chlamydia trachomatis; conditions: 10-30 μmol/L for 6 hours prior to infection
Description: Delta tocotrienol is a vitamin E compound also available as dietary supplement. […] Since Chlamydia species enter cells via cholesterol-rich lipid raft domains involved in cholesterol trafficking, tocotrienols in general and hypocholesterolemic delta tocotrienol in particular will reduce infection by Chlamydia. Mouse macrophages (J774A.1), human mammary tumor cells (MCF-7, TMX2-28), human epithelial cells (Hep-2), and human B-lymphocytes (JY) were incubated with delta tocotrienol at concentrations of 10-30 μmol/L for 6 hours prior to infection by C. trachomatis serovar K, a subspecies of Chlamydia that is the primary cause of bacteria-initiated STD. Infections were detected by immunofluorescence staining followed by either microscopy or quantitative flow cytometric analysis. Infection levels in cells pretreated with delta-tocotrienol were decreased by >50%, with concomitant aberrant pathogen development observed with confocal microscopy. The number of large and small inclusions in the delta tocotrienol-versus-control cells was decreased by 3- and 2-fold, respectively. […] The impact of dietary delta tocotrienol on Chlamydia infection in hyperlipidemic patients is being examined in a clinical study. Cholesterol-suppressive delta tocotrienol may have the potential to reduce Chlamydia infection in humans.

Question: What does the source list for delta tocotrienol?
Answer: apoptosis of Chlamydia-infected, tocotrienol-treated cancer cells (Chlamydia): did not appear to become apoptotic; inclusion size in tocotrienol treated mammary tumor cells (Chlamydia; 15 μmol/L, infected 72 hours, untreated >20 μm): 10-15 μm; potency of cholesterol inhibition among tocotrienol isomers [1]: most potent isomer; decrease in number of large inclusions versus control cells (C. trachomatis serovar K): 3 fold; decrease in number of small inclusions versus control cells (C. trachomatis serovar K): 2 fold; decrease of infection levels in pretreated cells (C. trachomatis serovar K): > 50%

Source: patent US20060241174A1, “Vitamin E tocotrienols inhibition of intracellularly obligate pathogen Chlamydia and methods of use” (priority 2005, published 2006)
